# Measured values from US20130230486A1, “COMPOSITIONS AND METHODS TO INDUCE TARGETED APOPTOSIS” (priority 2010, published 2013).
# Assays:
# PTPN13 [1] = test: PTPN13 mRNA expression by quantitative PCR in lung fibroblasts; format: cell-based, human; details: NHLF, FHLF and MRC5, IFN-γ 50 U/ml, 6 hours
# Description: (§1) To assess the effects of these cytokines on PTPN13 expression, non-diseased normal human lung fibroblasts (NHLF), fibrotic human lung fibroblasts (FHLF) and a fetal lung fibroblast cell line, MRC5 cells, were treated with TNF-α (10/ng/ml), IFN-γ (50 U/ml) or with both cytokines for 6 hours. PTPN13 expression was measured by quantitative PCR (FIG. 2A). The primary lung fibroblasts from normal and fibrotic lung had equivalent levels of PTPN13 expression to the MRC5 lung fibroblast cell line. […] Treatment with TNF-α alone caused a 40% decrease in PTPN13 expression. Combined exposure to TNF-α and IFN-γ decreased PTPN13 mRNA expression by 80%. Protein lysates from normal, fibrotic and MRC5 fibroblasts treated for 36 hours with TNF-α (10/ng/ml), IFN-γ (50 U/ml) or with both cytokines were then analyzed for PTPN13 expression. […]
# FIG. 2: TNF-α and IFN-γ decrease PTPN13 expression. […] A. Top panel is a quantitative RT-PCR analysis of PTPN13 mRNA lower panel is a Western blot analysis for PTPN13 protein.B. Time course of PTPN13 mRNA expression following TNF-a (10 ng/ml) and IFN-g (50 U/ml) treatment. […] Caspase-8 was measured using a fluorescence based assay.
# Total RNA was obtained from 1×10^6 MRC5 cells using the Qiagen RNA Miniprep Kit (Qiagen) following the manufacturer's instructions. […] The fluorescence values of the threshold cycles were collected and normalized to GAPDH. […]
# PTPN13 [2] = test: PTPN13 protein expression by Western blot in lung fibroblasts; format: cell-based, human; details: normal, fibrotic and MRC5 fibroblasts; TNF-α 10 ng/ml, IFN-γ 50 U/ml; 36 hours
# Description: as §1
# In one exemplary method, to assess whether PTPN13 expression prevents Fas-induced apoptosis, PTPN13 expression was knocked-down using siRNA. […] Apoptosis was assayed by quantifying activation of caspase-3 and caspase-8 (FIG. 3C).
# FIG. 3: Decreased PTPN13 expression sensitizes fibroblasts to Fas-induced apoptosis. […] PTPN13 expression was quantified by western blot analysis and densitometry was performed. […] Fas activating antibody (250 ng/ml) (Fas activating antibody) or PBS (unstimulated) was added for 2 hours before analyzing Caspase-8 activation by a fluorescence-based assay. c. […]
# murine model of fibrosis = test: Bleomycin murine model of fibrosis, mortality; format: in vivo, mouse; details: 2.5 U/kg bleomycin into the trachea
# Description: To assess the effect of PTPN13 on development of fibrosis in vivo, we used a murine model of fibrosis in a PTPN13-/- mouse. The PTPN13-/- mouse has been characterized by Grusby to have abnormal STAT4 signaling which leads to augmented skewing toward TH1 or TH2 phenotypes. 2.5 U/kg bleomycin was administered directly into the tracheas of PTPN13-/- mice along with wildtype controls. […] Due to drastic weight decreases in the wildtype mice, two weeks was chosen as the end time point. […] Of the 20 wildtype mice treated with bleomycin, 11 (55%) died before two weeks as compared to the PTPN13-/- mice where three of the 20 (15%) died. Saline had no effect on mortality. Then static compliance was measured. The saline treated wildtype and PTPN13-/- mice had similar values of static compliance. […] Collagen content was measured in the lung using a hydroxyproline assay. […] To determine a possible cause for the decreased static compliance in the PTPN13-/- mice, we also measured other markers of lung disease, such as cellular infiltration and capillary leak. We measured the cellularity of the bronchoalveolar fluid (BALF). […] Capillary leak was determined by albumin present in the BALF (FIG. 6F). […] To validate these findings, stereology was performed on lung sections to quantify presence of collagen and diseased areas. […] Percentage of diseased lung was also measured by stereology. […]
Substance,PTPN13 mRNA expression compared to untreated cells (in words) (PTPN13 [1]),PTPN13 protein expression (Western blot) (PTPN13 [2]),"decrease in PTPN13 mRNA expression (PTPN13 [1]; TNF-α 10 ng/ml, compared to untreated cells) [%]","mice that died before two weeks (murine model of fibrosis; PTPN13-/- mice, three of 20) [%]","mice that died before two weeks (murine model of fibrosis; wildtype mice, 11 of 20) [%]"
IFN-γ: Recombinant human IFN-γ purchased from R&D Systems,minimal decrease,not decreased,–,–,–
TNF-α,–,decreased,40,–,–
bleomycin,–,–,–,15,55
